Data from the supplement of paper PMC10307832.

Assays:
Assay in all cases: relative viability (nuclei count vs DMSO), 5 days (fraction); higher = more cells survive
[1] = tested on: NCI-H441
Method in brief: (§1)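 For relative viability, nuclei counts in treated wells were divided by those in vehicle wells. Lung cancer cell lines had been pin-tool dosed in 1536-well plates the day after seeding and cultured for 5 days, then fixed and stained in one step (final 0.05% Triton X-100, 1% formaldehyde, 1 ug/ml Hoechst) and imaged at 4×. Doses were one drug alone or a fixed anchor-drug dose plus five library-drug doses (not always all listed) in √10 steps, and values are duplicate-plate medians.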

[2] = tested on: NCI-H2126
Method in brief: as §1

[3] = tested on: EPLC-272H
Method in brief: as §1

[4] = tested on: HCC-78
Method in brief: as §1

[5] = tested on: NCI-H1666
Method in brief: as §1

[6] = tested on: ChaGo-K-1
Method in brief: as §1

[7] = tested on: LXF-289
Method in brief: as §1

[8] = tested on: HARA
Method in brief: as §1

[9] = tested on: LCLC-97TM1
Method in brief: as §1

[10] = tested on: PC-14
Method in brief: as §1

[11] = tested on: H3255
Method in brief: as §1

[12] = tested on: NCI-H2085
Method in brief: as §1

Cc1csc(=NC2CCCCC2)n1/N=C/c1ccc(O)c(O)c1O [MIM1] + Cc1nc(Nc2ncc(C(=O)Nc3c(C)cccc3Cl)s2)cc(N2CCN(CCO)CC2)n1 [Dasatinib] (partner 0.075 µM) gave a relative viability ([1]; first compound 6.325 µM) of 0.481, a relative viability ([1]; first compound 20 µM) of 0.262 and a relative viability ([2]; first compound 0.2 µM) of 0.679. It also gave a relative viability ([2]; first compound 0.6325 µM) of 0.582, a relative viability ([2]; first compound 2 µM) of 0.583 and a relative viability ([2]; first compound 6.325 µM) of 0.471. The relative viability ([2]; first compound 20 µM) was 0.287, the relative viability ([3]; first compound 0.2 µM) was 0.406 and the relative viability ([3]; first compound 0.6325 µM) was 0.305. For the same molecule, the relative viability ([3]; first compound 2 µM) was 0.328, the relative viability ([3]; first compound 6.325 µM) was 0.312 and the relative viability ([3]; first compound 20 µM) was 0.0989. The relative viability ([4]; first compound 0.2 µM) was 0.467, the relative viability ([4]; first compound 0.6325 µM) was 0.287 and the relative viability ([4]; first compound 2 µM) was 0.435. For the same molecule, the relative viability ([4]; first compound 6.325 µM) was 0.344, the relative viability ([4]; first compound 20 µM) was 0.487 and the relative viability ([5]; first compound 0.2 µM) was 0.788. It also gave a relative viability ([5]; first compound 0.6325 µM) of 0.852, a relative viability ([5]; first compound 2 µM) of 0.711 and a relative viability ([5]; first compound 6.325 µM) of 0.528. It also gave a relative viability ([5]; first compound 20 µM) of 0.41, a relative viability ([6]; first compound 0.2 µM) of 0.594 and a relative viability ([6]; first compound 0.6325 µM) of 0.552. For the same molecule, the relative viability ([6]; first compound 2 µM) was 0.562, the relative viability ([6]; first compound 6.325 µM) was 0.466 and the relative viability ([6]; first compound 20 µM) was 0.173. It also gave a relative viability ([7]; first compound 0.2 µM) of 0.224, a relative viability ([7]; first compound 0.6325 µM) of 0.174 and a relative viability ([7]; first compound 2 µM) of 0.194. It also gave a relative viability ([7]; first compound 6.325 µM) of 0.275, a relative viability ([7]; first compound 20 µM) of 0.177 and a relative viability ([8]; first compound 0.2 µM) of 0.216. For the same molecule, the relative viability ([8]; first compound 2 µM) was 0.228, the relative viability ([8]; first compound 6.325 µM) was 0.24 and the relative viability ([8]; first compound 20 µM) was 0.181. It also gave a relative viability ([9]; first compound 0.2 µM) of 0.866, a relative viability ([9]; first compound 0.6325 µM) of 0.709 and a relative viability ([9]; first compound 2 µM) of 1.02. It also gave a relative viability ([9]; first compound 6.325 µM) of 0.552, a relative viability ([9]; first compound 20 µM) of 0.431 and a relative viability ([10]; first compound 0.2 µM) of 0.301. For the same molecule, the relative viability ([10]; first compound 0.6325 µM) was 0.27, the relative viability ([10]; first compound 2 µM) was 0.171 and the relative viability ([10]; first compound 6.325 µM) was 0.233. The relative viability ([10]; first compound 20 µM) was 0.0786, the relative viability ([11]; first compound 0.2 µM) was 0.339 and the relative viability ([11]; first compound 0.6325 µM) was 0.343. It also gave a relative viability ([11]; first compound 2 µM) of 0.334, a relative viability ([11]; first compound 6.325 µM) of 0.344 and a relative viability ([11]; first compound 20 µM) of 0.255. For the same molecule, the relative viability ([12]; first compound 0.2 µM) was 0.323, the relative viability ([12]; first compound 0.6325 µM) was 0.251 and the relative viability ([12]; first compound 2 µM) was 0.261. It also gave a relative viability ([12]; first compound 6.325 µM) of 0.241 and a relative viability ([12]; first compound 20 µM) of 0.253.
